A short description of assay [1]: Binding affinity to PKAc.
Assay [2] in a line: Binding affinity to PKG.
A short description of assay [3]: Inhibition of catalytic subunit of PKA.
The nature of assay [4]: Inhibition of PKC.

We go through two compounds from ChEMBL document CHEMBL2021921 (Bioorg Med Chem Lett, 2012).

The term Ki denotes a measure of affinity in units of concentration, obtained from inhibition or displacement. Take `NCCNS(=O)(=O)c1cccc2cnccc12`: the results for the Ki in assay [1] and in assay [2] were 1900 nM and 800 nM, respectively.

Broadly, the IC50 is the concentration needed to halve the response being measured. Higher therefore signals a need for much substance. Turning to `N=C(N)NCCC[C@H](NC(=O)[C@H](CCCNC(=N)N)NC(=O)[C@H](CCCNC(=N)N)NC(=O)[C@H](CCCNC(=N)N)NC(=O)[C@H](CCCNC(=N)N)NC(=O)[C@H](CCCNC(=N)N)NC(=O)[C@H](CO)NC(=O)CCNCCNS(=O)(=O)c1cccc2cnccc12)C(N)=O`, the half-inhibitory concentration (IC50) was found to be 3 nM in assay [3] and 300 nM in assay [4].
